The text below walks through data of patent publication US7632928B2, “Method and antibodies for detecting nitrofuran” (Charm Sciences, Inc, priority 2004, dated 2009).

Series [1] deals with antibody raised against FZDM-Glut-Thyroglobulin immunogen. The experiment in a line: AOZ ELISA competitive binding assay. The settings on record: positive controls at input levels 0.1 to 10 ppb; PEB vs PBS buffer; plate coated with N-linked FZDM-BSA. The text has this: An AOZ ELISA competitive binding assay is shown below, where the N-linked direct conjugate of FZDM-BSA is used as a binding partner conjugate coated on the ELISA plate, and the N-linked direct conjugate of FZDM-alpha-amylase is used as the positive control of protein-bound FZDM in comparison with the FZDM positive control. The antibody used in the assay was raised against the prior art FZDM-Glut-Thyroglobulin immunogen. Assays were run in two different buffers comparing PEB (Protein Elution Buffer) vs. PBS (Phosphate buffer saline).

`N#CC=CC(=O)/C=N/N1CC(=O)NC1=O` [compound 1, 5-(2,4-Dioxoimidazolidin-1-ylimino)-4-oxo-pent-2-enenitrile] showed a melting point of 171 to 173 °C. With `N#CC=CC(=O)/C=N/N1CCOC1=O` [compound 3, 5-(2-oxo-oxazolidin-3-ylimino)-4-oxo-pent-2-enenitrile], in series [1], the “dose-responses (% inhibition)” value is “varying dose-responses”.
